Experimental data from PubChem BioAssay (NCI).
Several values for one entry are separate records, joined by “and”; a condition that tells them apart may be missing. Equal values may be shown once.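 A five-concentration, 48-hour dose response in 96-well plates underlies each endpoint, interpolated linearly between surrounding concentrations. The concentration for 50% growth inhibition is given as GI50. TGI: concentration producing complete growth inhibition.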

Columns and labels:
Assay in all cases: NCI tumour cell line growth inhibition, 48 h
SW-620 colon = tested on: SW-620 colon
HOP-92 NSCLC = tested on: HOP-92 NSCLC
EKVX NSCLC = tested on: EKVX NSCLC
HS 578T breast = tested on: HS 578T breast
SF-268 CNS = tested on: SF-268 CNS
U251 CNS = tested on: U251 CNS
M14 melanoma = tested on: M14 melanoma
SR leukemia = tested on: SR leukemia

SMILES | GI50 (SW-620 colon) [µM] | TGI (SW-620 colon) [µM] | GI50 (HOP-92 NSCLC) [µM] | TGI (HOP-92 NSCLC) | GI50 (EKVX NSCLC) [µM] | TGI (EKVX NSCLC) [µM] | GI50 (HS 578T breast) [µM] | TGI (HS 578T breast) [µM] | GI50 (SF-268 CNS) [µM] | TGI (SF-268 CNS) [µM] | GI50 (U251 CNS) [µM] | TGI (U251 CNS) [µM] | GI50 (M14 melanoma) [µM] | TGI (M14 melanoma) [µM] | GI50 (SR leukemia) [µM] | TGI (SR leukemia) [µM]
COc1cc(N=Nc2cc(Cc3ccc(N(C)C)cc3)c(N)cc2N(C)C)c2ncccc2c1 | 0.374 | 2.16 | 0.266 | 1.5 µM | 0.332 | 1.98 | 0.473 | 2.35 | 0.593 | 2.31 | 0.466 | 1.94 | 0.34 | 1.58 |  | 
CC(=O)c1cc2c(N)c(C(=O)Nc3cccc4ccccc34)sc2nc1C | 1.55 | > 50 | 6.78 | > 50 µM | 2.9 | > 50 | 1.82 | > 50 | 4.34 | > 50 | 1.92 | > 50 | 0.745 | 3.21 | 1.21 | > 50
N=C(N)c1ccc2oc3ccc(C(=N)N)cc3c(=O)c2c1 |  | > 100 |  | > 100 µM |  |  |  |  |  | > 100 |  | > 100 |  | > 100 |  | 
[Br][Pb]([c]1ccccc1)([c]1ccccc1)[c]1ccccc1 | 0.163 | 0.3 |  |  | 0.183 | 0.439 |  |  | 0.171 | 0.35 | 0.169 | 0.309 | 0.195 | 0.409 | 0.103 | > 100
COc1cccc(C2CC(=O)Nc3c2c(C)nn3-c2nc3ccccc3[nH]2)c1OC (stereo unspecified) | 4.19 | 46.4 | 2.95 | 24.3 µM |  |  | 3.51 | 47.5 | 4.92 | 61.3 | 3.63 | 20.3 | 4.45 | 30.3 | 4.22 | > 40.9
CNC(=O)CCN1CCN(CC/C=C2\c3ccccc3Sc3ccc(Cl)cc32)CC1 | 9.18 | 23.6 | 5.75 | 27 µM | 14.5 | 30.6 | 3.67 | 20.5 | 9.83 | 23.9 | 7.22 | 20.7 | 2.1 | 4.4 | 4.19 | 18.1
O=[N+]([O-])c1cccc(/C=N/Nc2ccc3ccccc3n2)c1O |  | > 48.4 |  | > 46.9 µM |  | 39.1 |  | > 88.6 |  | 15.3 |  | 16.4 |  | 5.32 |  | 21.4
Fc1ccccc1CN1COc2c(cc(Cl)c3cccnc23)C1 |  | 18.4 |  | 16.8 µM |  | 2.72 |  | 20.8 |  | 20.3 |  | 12.8 |  | 12 |  | 3.85
CCCCCCCCCCCCCCCCCc1nc(Cl)nc(Cl)c1Cl |  | > 100 |  | > 100 µM |  |  |  | > 100 |  | > 100 |  | > 100 |  | > 100 |  | > 100
O=C(Nc1ccn(C2CC(O)C(COC(c3ccccc3)(c3ccccc3)c3ccccc3)O2)c(=O)n1)c1ccccc1 (stereo unspecified) |  | 5.46 |  | 3.59 µM |  | 16.2 |  | 5.91 |  | 20 |  | 11.4 |  | 4.57 |  | 5.34
Cc1ccc(NCCNCC(C)(C)O)c2c(=O)c3ccc(Cl)cc3sc12 | 1.5 | 2.96 | 0.455 | 1.92 µM | 1.38 | 2.87 | 1.59 | 3.84 | 1.52 | 3.22 | 1.67 | 3.06 | 1.66 | 3.26 |  | 
CC1(C)N=C(N)N=C(N)N1c1ccc(CCCC(=O)Nc2ccc(S(=O)(=O)F)cc2)cc1 | 1.99 | > 100 | 10.7 | > 100 µM |  |  | > 100 | > 100 | 6.59 | > 100 | 9.22 | > 100 | 5.44 | > 100 | 1.53 | > 100
CN1C2C=CC(=O)C1C1C(=O)N(c3ccccc3)C(=O)C12 (stereo unspecified) | 3.09 | 10.7 | 0.085 | 0.701 µM | 14.4 | 32.7 | 4.55 | 22.3 | 3.99 | 17.3 | 7.16 | 20.8 | 9.8 | 24.6 |  | 
COc1cc2ncn(-c3cc(OCc4ccccc4C(F)(F)F)c(C(N)=O)s3)c2cc1OC | 0.0822 | > 25 | 2.2 | 10.5 µM | 3.69 | > 25 | 0.576 | > 8.59 | 0.225 | > 25 | 0.206 | > 19.3 | 0.141 | > 25 |  | 
CCCCCCCCCCCC/C=C\CC[C@@H](O)[C@H](O)CC[C@H](O)[C@@H]1CC[C@@H](CCCCCCCC2=C[C@H](C)OC2=O)O1 | 23.4 | > 100 | 17.4 | 8.69 µM and 55.2 µM | 11.6 | 28.9 |  |  | 14.2 | 38 | 13.7 | > 100 |  | 46.8 |  | 
O=C(/C=C/c1ccc(O)c(O)c1)N1CCN(c2ccc(Cl)cc2)CC1 | 7.28 | 81.4 | 2.42 | 23.4 µM |  |  | 8.04 | 49.4 | 4.92 | 42.6 | 5 | 23.3 | 8.98 | 47.1 | 3.94 | 34
O=[N+]([O-])c1ccccc1N=Nc1c(O)[nH]c2c(Cl)cccc12 |  | > 79 |  |  |  | > 61.5 |  | 43.4 |  | 59.8 |  | > 51.5 |  | > 100 |  | > 69.6
CC1(C)CC(O)CC(C)(C)N1O |  | > 100 |  |  |  | > 100 | > 100 | > 100 |  | > 100 | > 100 | > 100 |  | > 100 |  | > 100
Nc1ccc(CC[C@H]2CCC/C=C/[C@@H]3C[C@H](O)C[C@H]3[C@H](O)/C=C/C(=O)O2)cc1 | 0.0329 | 0.203 | 0.0436 | 0.53 µM | 0.0374 | 2.49 | < 0.0163 | > 58.9 | 0.0351 | > 100 | 0.048 | > 100 | 0.0337 | 10.7 | 0.0348 | 7.51
